Entries after “also recorded” stand apart in the source; their conditions may differ.
Legend:
[1] = tested on: mitochondrial volume and tight junction proteins in isolated brain capillaries; assay: Correlation of capillary mitochondrial volume (OXPHOS) and ZO-1, chronic delayed sildenafil study; format: in vivo, Sprague Dawley rats; conditions: 20 mg/kg oral gavage daily from 2 to 5 months post-blast; brain capillaries at 5 months post-rmbTBI
Experimental: Brain Capillary Isolation and Immunostaining. Half frozen rat brain from all groups was homogenized with isolation buffer (pH7.4 DPBS containing 5.5 mM glucose, 1 mM sodium pyruvate, and 1% BSA). The homogenate was centrifuged at 1000×g for 10 min at 4° C. to remove the supernatant. […] After evaluating the quality and concentration of capillary suspension under a bright field microscope, which may contain small amount of large vessel and cells, the isolated capillary sample was ready for the immunostaining analysis. […]
The expression of ZO-1 was quantified by measuring the mean fluorescence intensity by tracing the capillary under NIS-Elements analysis software. The total capillary area was measured by using NIS-Elements. For mitochondrial volume, the OXPHOS fluorescence from Z-stack images was quantified using Imaris (X64 9.6.1) using surface creation tool. […]

[2] = tested on: rat brain microvascular endothelial cells; assay: Mitochondrial Network Analysis (MiNA) with mitotracker green in cell culture; format: cell-based; conditions: sildenafil 1 μM in 1% DMSO overnight vs vehicle
Description: Mitochondrial Mechanisms Targeting mbTBI. […] Mitochondrial Network Analysis (MiNA) workflow in ImageJ was used to examine mitochondrial parameters.

PGC-1α = assay: Western blot for PGC-1α in cortical and hippocampal tissue seven days post-rmbTBI; format: in vivo, Sprague Dawley rats; conditions: vs rmbTBI vehicle; for PGC-1α expression in cortex tissue: rmbTBI (2 blasts, 24 h interval)
Description: Blast Exposure. The MBD consists of a cylindrical steel tube, 12-inch internal diameter, separated into a 19-ft. expansion chamber and a 2.5-ft compression chamber. For these studies, compressed helium-driven mode was used to replicate military blast exposure. A 10-mil-thick (0.254 mm) biaxially-oriented polyethylene terephthalate (Mylar) membrane separates the two chambers. The Mylar membrane was actively ruptured by a 4-point blade affixed to a pneumatic cylinder to achieve desired static overpressure. The shock wave was recorded by face-on, reflected pressure (Kulite pitot-static pressure probe) and wall-mounted side-on static pressure sensors (Kulite). Data from each piezoresistive sensor was routed through sensor cables before being captured by the state-of-the-art TMX-18 (AstroNova™ Test & Measurement, 800 kHz sampling rate) and analyzed using AstroView. The rat subjects were secured in plastic netting to minimize but allow free body motion without neck flexion. The rat subjects were positioned 30 inches inside the tube and with lateral head exposure. An overpressure of 11 PSI was utilized, which is in the range where neurological disruption has been observed in operations involving breaching activity. In the studies underlying this example, Sprague Dawley rats were subjected to repeated blast exposure (2 blasts at 24 h interval). Tissue Isolation. For downstream western blot, whole brain homogenate was collected during brain capillary isolation and mixed with 10× RIPA buffer (150 mM NaCl, 1% Triton X-100, 0.5% sodium deoxycholate, 0.1% SDS, 50 mM Tris, pH 8.0) supplemented with protease inhibitors. The samples were snap-frozen in liquid nitrogen and stored at −80° C. until further use. Mitochondrial Biogenesis and Astrocyte Homeostasis. […] Expression of peroxisome proliferator-activated receptor gamma coactivator 1-alpha (PGC-1α), glial fibrillary acidic protein (GFAP), and β-actin was assessed in cortical tissue using western blot. Cortical tissue was extracted and probed seven days post-rmbTBI. Expression of PGC-1a and β-actin was also assessed using in the hippocampal tissue of subjects using western blot. Hippocampal tissue was extracted and probed seven-days post-rmbTBI.

GFAP = assay: Western blot for GFAP in cortical tissue seven days post-rmbTBI; format: in vivo, Sprague Dawley rats; conditions: rmbTBI (2 blasts, 24 h interval), vs rmbTBI vehicle
Description: Blast Exposure. The MBD consists of a cylindrical steel tube, 12-inch internal diameter, separated into a 19-ft. expansion chamber and a 2.5-ft compression chamber. For these studies, compressed helium-driven mode was used to replicate military blast exposure. A 10-mil-thick (0.254 mm) biaxially-oriented polyethylene terephthalate (Mylar) membrane separates the two chambers. The Mylar membrane was actively ruptured by a 4-point blade affixed to a pneumatic cylinder to achieve desired static overpressure. The shock wave was recorded by face-on, reflected pressure (Kulite pitot-static pressure probe) and wall-mounted side-on static pressure sensors (Kulite). Data from each piezoresistive sensor was routed through sensor cables before being captured by the state-of-the-art TMX-18 (AstroNova™ Test & Measurement, 800 kHz sampling rate) and analyzed using AstroView. The rat subjects were secured in plastic netting to minimize but allow free body motion without neck flexion. The rat subjects were positioned 30 inches inside the tube and with lateral head exposure. […] Expression of peroxisome proliferator-activated receptor gamma coactivator 1-alpha (PGC-1α), glial fibrillary acidic protein (GFAP), and β-actin was assessed in cortical tissue using western blot. […] Expression of PGC-1a and β-actin was also assessed using in the hippocampal tissue of subjects using western blot. […]

ZO-1 = assay: Tight junction integrity (ZO-1 immunostaining of cortical capillaries) seven days post-rmbTBI; format: in vivo, Sprague Dawley rats; conditions: 20 mg/kg high dose daily to day seven, vs rmbTBI vehicle
Description: (§1) Blast Exposure. The MBD consists of a cylindrical steel tube, 12-inch internal diameter, separated into a 19-ft. expansion chamber and a 2.5-ft compression chamber. For these studies, compressed helium-driven mode was used to replicate military blast exposure. A 10-mil-thick (0.254 mm) biaxially-oriented polyethylene terephthalate (Mylar) membrane separates the two chambers. The Mylar membrane was actively ruptured by a 4-point blade affixed to a pneumatic cylinder to achieve desired static overpressure. The shock wave was recorded by face-on, reflected pressure (Kulite pitot-static pressure probe) and wall-mounted side-on static pressure sensors (Kulite). Data from each piezoresistive sensor was routed through sensor cables before being captured by the state-of-the-art TMX-18 (AstroNova™ Test & Measurement, 800 kHz sampling rate) and analyzed using AstroView. The rat subjects were secured in plastic netting to minimize but allow free body motion without neck flexion. The rat subjects were positioned 30 inches inside the tube and with lateral head exposure. An overpressure of 11 PSI was utilized, which is in the range where neurological disruption has been observed in operations involving breaching activity. In the studies underlying this example, Sprague Dawley rats were subjected to repeated blast exposure (2 blasts at 24 h interval). Capillary Isolation. […]

TOM20 = assay: Capillary-specific mitochondrial content (TOM20 staining) seven days post-rmbTBI; format: in vivo, Sprague Dawley rats; conditions: 20 mg/kg high dose daily to day seven, vs rmbTBI vehicle
Description: as §1

[3] = tested on: freezing behavior after rmbTBI; assay: Contextual fear conditioning test, chronic delayed sildenafil study; format: in vivo, Sprague Dawley rats; conditions: 20 mg/kg daily; 5 months post-blast; day 1 acquisition, days 2-4 extinction
Experimental: Animal Procedure. […] MRI (magnetic resonance imaging) was performed at 1.5 and 4.5 months post-blast. Fear conditioning test was performed at 5 months post-blast. At the end of the experiment, rats were euthanized and the brain tissue was collected after transcardial perfusion with PBS (FIG. 24). One hemisphere of the brain was snap frozen with liquid nitrogen for brain capillary isolation while another hemisphere of the brain was fixed with 4% paraformaldehyde (PFA). After 48 hours of fixation, the brain tissue was placed into PBS containing 30% sucrose for 72 hours. The sucrose saturated brain tissue was flash frozen in-25 to −35° C. isopentane and stored at −20° C. or proceeded to sectioning. Fear Conditioning Test. Contextual Fear Conditioning paradigm was performed over 4 days. On the acquisition day, rats were placed in a foot shock chamber with a camera within a sound-attenuating chamber and were allowed to explore freely for 2 min. After 2 min, a total of 6 electric shocks (0.75 mA, 2 s duration) were delivered at intervals of 60 s through the testing chamber floor, with shock delivery controlled by Med associates Inc. VideoFreeze™ Video Fear Conditioning Software. […] Video footage was later scored for freezing behavior using Med associates Inc. VideoFreeze™ Video Fear Conditioning Software. […]

[4] = tested on: cerebral blood flow (CBF); assay: MRI arterial spin labeling of cerebral blood flow, chronic delayed sildenafil study; format: in vivo, Sprague Dawley rats; conditions: 20 mg/kg daily, 2 and 4.5 months post-rmbTBI, between sham, rmbTBI+vehicle
Experimental: Animal Procedure. […] MRI (magnetic resonance imaging) was performed at 1.5 and 4.5 months post-blast. […] At the end of the experiment, rats were euthanized and the brain tissue was collected after transcardial perfusion with PBS (FIG. 24). One hemisphere of the brain was snap frozen with liquid nitrogen for brain capillary isolation while another hemisphere of the brain was fixed with 4% paraformaldehyde (PFA). After 48 hours of fixation, the brain tissue was placed into PBS containing 30% sucrose for 72 hours. The sucrose saturated brain tissue was flash frozen in-25 to −35° C. isopentane and stored at −20° C. or proceeded to sectioning.
Magnetic Resonance Imaging (MRI). MRI scanning was performed at 1.5 months and 4.5 months post-blast injury. Briefly, rats were placed under anesthesia with 4% isoflurane before placing it in the MRI scanner. Physiological monitoring was recorded every 10 min (with normal range 300-450 bpm) and rat body temperature was maintained while scanning under anesthesia. […] Labeling efficiency was calculated from a pCASL-encoded fast low-angle shot (FLASH) sequence (TR/TE=250/3.5 ms; in plane resolution 182×182 μm2; slice thickness 1.5 mm; flip angle 80° labeling time 200 ms; transit time 0 ms) image of the carotid artery just below the split and 5 mm above the labeling slice. […]

[5] = 5 mg/kg low dose daily to day seven
[6] = 20 mg/kg high dose daily to day seven

Compound: CCCc1nn(C)c2c(=O)[nH]c(-c3cc(S(=O)(=O)N4CCN(C)CC4)ccc3OCC)nc12 [sildenafil]
- correlation between capillary mitochondrial content (OXPHOS) and tight junction integrity (ZO-1) [1]: significant positive correlation; also recorded: strengthens the correlation
- mitochondrial branching [2]: decreased
- mitochondrial footprint/density [2]: increased
- PGC-1α expression in cortex tissue (PGC-1α; [5]): increased
- PGC-1α expression in cortex tissue (PGC-1α; [6]): increased
- PGC-1α expression in hippocampal tissue (PGC-1α; 20 mg/kg high dose daily to day seven, rmbTBI): significantly increased
- GFAP expression in cortex tissue (GFAP; [5]): increased
- GFAP expression in cortex tissue (GFAP; [6]): increased
- ZO-1 expression in cortical capillaries (ZO-1): increased; also recorded: non-significantly increased
- TOM20 expression / capillary mitochondrial volume (TOM20): significantly increased; also recorded: increased volume
- freezing episodes (fear extinction) [3]: significant time-related decrease
- regional cerebral blood flow (CBF) in cortex, hippocampus and amygdala [4]: No significant differences

Reference: patent US20250381194A1, “METHODS FOR MITIGATING THE EFFECTS OF LOW-LEVEL BLASTS THROUGH PHOSPHODIESTERASE-5 INHIBITION” (University of Kentucky Research Foundation, priority 2024, published 2025)
